Our source for the solubility values is patent US4309362A, “Process for the optical resolution of DL-p-hydroxy-phenylglycine” (Tanabe Seiyaku Co., Ltd., priority 1976, dated 1982).

Values after ≈ are worked out from the molar mass of the structure shown.

Data set [1] is described as follows: physchem. Conditions: 0.5 m benzenesulfonic acid, organic solvent or mixture, aqueous 0.5 M benzenesulfonic acid solution.
A short description of data set [2]: Solubility of p-hydroxyphenylglycine o-toluenesulfonate in water (Table 3). In kind it is physicochemical.
The nature of data set [3]: Solubility of p-hydroxyphenylglycine p-ethylbenzenesulfonate in aqueous 3 M p-ethylbenzenesulfonic acid (Table 2). Format: physicochemical. Conditions: aqueous 3 M p-ethylbenzenesulfonic acid solution. The source says: *an aqueous 3 M pethylbenzenesulfonate acid solution
Data set [4] is described as follows: physchem. In kind it is physicochemical. Conditions: water. The protocol: DL-, D- or L-p-hydroxyphenylglycine sulfosalicylate is prepared in the same manner as described in Example 1.
p-hydroxyphenyl- Specific Solubility (g/100
Melting rotation ml of water)

By solubility is commonly meant the concentration that dissolves in the medium under given conditions. As to `NC(C(=O)O)c1ccc(O)cc1.O=S(=O)(O)c1ccccc1` (racemic) [DL-p-hydroxyphenylglycine benzenesulfonate], the solubility in the data set “physchem [1]” (20° C.) came to 154 mg/mL; in the data set “physchem [1]” (30° C.) it was 241 mg/mL; in “physchem [1]” (40° C.) it was 350 mg/mL.

With `NC(C(=O)O)c1ccc(O)cc1` (racemic) [DL-p-hydroxyphenylglycine o-toluenesulfonate], the solubility was found to be 123 mg/mL (≈ 736 mM) in data set [2] (20° C.), 160 mg/mL (≈ 957 mM) in data set [2] (30° C.) and 210 mg/mL (≈ 1260 mM) in data set [2] (40° C.).

Regarding `NC(C(=O)O)c1ccc(O)cc1` (racemic) [DL-p-hydroxyphenylglycine p-ethylbenzenesulfonate], the solubility is recorded as 19.3 g/100 ml of solvent in data set [3] (20° C.), 33.2 g/100 ml of solvent in data set [3] (30° C.) and 52.1 g/100 ml of solvent in data set [3] (40° C.).

In the case of `NC(C(=O)O)c1ccc(O)cc1` (racemic) [DL-p-hydroxyphenylglycine sulfosalicylate], the solubility in “physchem [4]” is 26.3 g/100 ml of water; in the data set “physchem [4]” (Solubility), 182 mg/mL (≈ 1090 mM).

With `N[C@@H](C(=O)O)c1ccc(O)cc1` (single isomer, unassigned; enantiomer d) [p-hydroxyphenylglycine p-ethylbenzenesulfonate, D-enantiomer, D-p-hydroxyphenylglycine p-ethylbenzenesulfonate], the solubility in data set [3] (20° C.) is recorded as 10.3 g/100 ml of solvent; in data set [3] (30° C.), 14.2 g/100 ml of solvent; in data set [3] (40° C.), 21.8 g/100 ml of solvent.

Take `N[C@@H](C(=O)O)c1ccc(O)cc1` (single isomer, unassigned; enantiomer d) [p-hydroxyphenylglycine sulfosalicylate monohydrate, D-enantiomer, D-p-hydroxyphenylglycine sulfosalicylate]: the solubility in “physchem [4]” is 14.0 g/100 ml of water; in the data set “physchem [4]” (Solubility) it was 100 mg/mL.

In the case of `N[C@@H](C(=O)O)c1ccc(O)cc1.O=S(=O)(O)c1ccccc1` [p-hydroxyphenylglycine benzenesulfonate, D-enantiomer, D-p-hydroxyphenylglycine benzenesulfonate], the solubility in the data set “physchem [1]” (20° C.) was found to be 77 mg/mL; in the data set “physchem [1]” (30° C.), 110 mg/mL; in the data set “physchem [1]” (40° C.), 167 mg/mL.

With `N[C@H](C(=O)O)c1ccc(O)cc1.O=S(=O)(O)c1ccccc1` [p-hydroxyphenylglycine benzenesulfonate, L-enantiomer, L-p-hydroxyphenylglycine benzenesulfonate], the solubility in the data set “physchem [1]” (20° C.) came out at 77 mg/mL; in “physchem [1]” (30° C.), 110 mg/mL; in the data set “physchem [1]” (40° C.) it was 167 mg/mL.

Consider `N[C@@H](C(=O)O)c1ccc(O)cc1` [p-hydroxyphenylglycine o-toluenesulfonate, D-enantiomer, D-p-hydroxyphenylglycine o-toluenesulfonate], for which the solubility in data set [2] (20° C.) was found to be 77 mg/mL (≈ 461 mM); in data set [2] (30° C.) it was 96 mg/mL (≈ 574 mM); in data set [2] (40° C.) it was 122 mg/mL (≈ 730 mM).

On to `N[C@H](C(=O)O)c1ccc(O)cc1` [p-hydroxyphenylglycine o-toluenesulfonate, L-enantiomer, L-p-hydroxyphenylglycine o-toluenesulfonate], for which the solubility in data set [2] (20° C.) stood at 77 mg/mL (≈ 461 mM); in data set [2] (30° C.) it was 96 mg/mL (≈ 574 mM); in data set [2] (40° C.), 122 mg/mL (≈ 730 mM).

In the case of `N[C@H](C(=O)O)c1ccc(O)cc1` [p-hydroxyphenylglycine p-ethylbenzenesulfonate, L-enantiomer, L-p-hydroxyphenylglycine p-ethylbenzenesulfonate], the values for the solubility in data set [3] (20° C.), in data set [3] (30° C.) and in data set [3] (40° C.) were 10.3 g/100 ml of solvent, 14.2 g/100 ml of solvent and 21.8 g/100 ml of solvent, respectively.

On to `N[C@H](C(=O)O)c1ccc(O)cc1` [p-hydroxyphenylglycine sulfosalicylate monohydrate, L-enantiomer, L-p-hydroxyphenylglycine sulfosalicylate], for which the solubility in “physchem [4]” was 14.0 g/100 ml of water; in the data set “physchem [4]” (Solubility), 100 mg/mL.
